Tests used:
human EDG8 [1] = target: T1, human EDG8 (Homo sapiens, UniProt Q9H228); assay: FLIPR intracellular Ca2+ mobilization in CHO cells transiently transfected with EDG8; assay type: cell-based; parameters: The 1197 bp PCR product was cloned into the pCDNA3.1(+) mammalian expression vector; expressed in transfected cells; host or cells: CHO-K1, transient transfection; details: for EDG8-mediated increase in intracellular Ca2+ by lysophospholipid mediators: CHO cells transiently transfected with EDG8 and Gα16 or Gαqi5, lipids at 10, 100, 1000 nM
Experimental: FIG. 3: Effects of S1P, LPA and related lysophospholipid mediators on EDG8-mediated increase in intracellular Ca^2+. CHO-cells were cotransfected with EDG8 and the G protein α subunits Gqi5 (upper panel) and G16 (lower panel) and rises in [Ca^2+]i were recorded with the FLIPR as described in Experimental procedures. The different lipids were applied in concentrations of 10, 100 and 1000 nM, respectively. Data are means of quadruplicate determinations of a representative experiment.
CHO-K1 cells were grown in basal ISCOVE medium supplemented with 10% fetal bovine serum at 37° C. in a humidified 5% CO2 incubator. For transfections, 2×10^5 cells were seeded into 35-mm dishes. About 24 hr later cells were transiently transfected at 50–80% confluency with the indicated receptor and G-protein constructs (1 μg of plasmid DNA each) using the Lipofectamine transfection reagent and the supplied protocol (GIBCO). 18–24 hr after transfection cells were seeded into 96well plates at a density of 50,000 cells per well and cultured for 18–24 additional hr until used in the functional FLIPR assays.
Twenty-four hours after transfection, cells were splitted into 96-well, black-wall microplates (Corning) at a density of 50,000 cells per well. 18–24 hr later, cells were loaded with 95 μl of HBSS containing 20 mM Hepes, 2.5 mM probenecid, 4 μM fluorescent calcium indicator dye Fluo4 (Molecular Probes) and 1% fetal bovine serum for 1 h (37° C., 5% CO2). Cells were washed three times with HBSS containing 20 mM Hepes and 2.5 mM probenecid in a cell washer. After the final wash, the solution was aspirated to a residual volume of 100 μl per 96 well. Lipid ligands were dissolved in DMSO as 2 mM stock solutions (treated with ultrasound when necessary) and diluted at least 1:100 into HBSS containing 20 mM HEPES, 2.5 mM probenecid and 0.4 mg/ml fatty acid free bovine serum albumine. Lipids were aliquoted as 2× solutions into a 96 well plate prior to the assay. The fluorometric imaging plate reader (FLIPR, Molecular Devices) was programmed to transfer 100 μl from each well of the ligand microplate to each well of the cellplate and to record fluorescence during 3 min in 1 second intervals during the first minute and 3 second intervals during the last two minutes. Total fluorescence counts from the 18-s to 37-s time points are used to determine agonist activity. The instrument software normalizes the fluorescent reading to give equivalent initial readings at time zero.

human EDG8 [2] = target: T1, human EDG8; assay: Effect of inhibitor alone on [Ca2+]i during preincubation, cells cotransfected with human EDG8 and Gαqi5; assay type: cell-based; parameters: The 1197 bp PCR product was cloned into the pCDNA3.1(+) mammalian expression vector; expressed in transfected cells; details: 3 minutes, before 1 μM S1P
Experimental: (§1) FIG. 9: Inhibition of S1P mediated intracellular calcium release by suramin and NF023 (8,8′-(carbonylbis(imino-3,1-phenylene))bis-(1,3,5-naphatlenetrisulfonic acid)) in cells transiently cotransfected with human EDG8 and Gαqi5 (A) and rat EDG8 and Gαqi5 (B). […] Cells were then stimulated with 1 μM S1P and in [Ca^2+]i measured with the FLIPR as described in the method section. Peak fluorescence counts were normalized and background responses of Gαqi5-transfected cells were subtracted. S1P-mediated calcium release in the absence of inhibitor was set 100%. Data are means±SE of 4–7 independent experiments.
(§2) Twenty-four hours after transfection, cells were splitted into 96-well, black-wall microplates (Corning) at a density of 50,000 cells per well. […] The fluorometric imaging plate reader (FLIPR, Molecular Devices) was programmed to transfer 100 μl from each well of the ligand microplate to each well of the cellplate and to record fluorescence during 3 min in 1 second intervals during the first minute and 3 second intervals during the last two minutes. Total fluorescence counts from the 18-s to 37-s time points are used to determine agonist activity. The instrument software normalizes the fluorescent reading to give equivalent initial readings at time zero.

rat EDG8 = target: T2, rat EDG8 (Rattus norvegicus, UniProt Q9JKM5); assay: Effect of inhibitor alone on [Ca2+]i during preincubation, cells cotransfected with rat EDG8 and Gαqi5; assay type: cell-based; details: 3 minutes, before 1 μM S1P
T2 construct: expressed in transfected cells
Experimental: as §1, §2

EDG6 receptor = EDG6 receptor (Homo sapiens, UniProt O95977); assay: FLIPR intracellular Ca2+ mobilization in CHO cells transfected with EDG6; assay type: cell-based; details: absence of any cotransfected G-protein α subunit
Experimental: (§3) FIGS. 2A–F: Mobilization of intracellular Ca^2+ by S1P (10, 100 and 1000 nM) mediated by the EDG1, 3, 5, 6 and 8 receptor in CHO cells, cotransfected with empty vector DNA as a control or the indicated G-protein α subunits.
(§4) A: S1P-induced Ca^2+-response in CHO cells transfected with vector DNA alone or the G protein α subunits Gq, G16 and Gqi5. B-F: S1P-induced Ca^2+-response in CHO cells transfected with the indicated EDG-receptor subtypes. Agonist-mediated changes of intracellular Ca^2+ were measured with the FLIPR using the Ca^2+-sensitive dye FLUO4 as described in Experimental procedures. Fluorescence of transfected cells loaded with FLUO4 was recorded before and after addition of S1P, applied in the indicated concentrations. Data are expressed as means of quadruplicate determinations in a single experiment.
(§5) CHO-K1 cells were grown in basal ISCOVE medium supplemented with 10% fetal bovine serum at 37° C. in a humidified 5% CO2 incubator. For transfections, 2×10^5 cells were seeded into 35-mm dishes. About 24 hr later cells were transiently transfected at 50–80% confluency with the indicated receptor and G-protein constructs (1 μg of plasmid DNA each) using the Lipofectamine transfection reagent and the supplied protocol (GIBCO). […]

EDG1 receptor = EDG1 receptor (Homo sapiens, UniProt P21453); assay: FLIPR intracellular Ca2+ mobilization in CHO cells transfected with EDG1; assay type: cell-based; details: transiently transfected CHO cells; 10, 100, 1000 nM
Experimental: as §3, §4, §5

EDG3 receptor = EDG3 receptor (Homo sapiens, UniProt Q99500); assay: FLIPR intracellular Ca2+ mobilization in CHO cells transfected with EDG3; assay type: cell-based; details: transiently transfected CHO cells; 10, 100, 1000 nM
Experimental: as §3, §4, §5

CHO cells = assay: FLIPR intracellular Ca2+ mobilization in CHO cells without EDG receptor (vector or G protein alpha subunits only); assay type: cell-based, chinese hamster
Experimental: as §3, §4, §5

EDG5 receptor = target: T3, EDG5 receptor (Homo sapiens, UniProt O95136); assay: FLIPR intracellular Ca2+ mobilization in CHO cells transfected with EDG5; assay type: cell-based; details: transiently transfected CHO cells; 10, 100, 1000 nM
T3 construct: expressed in transfected cells; host or cells: CHO-K1, transient transfection
Experimental: as §3, §4, §5

T1 sequence (Q9H228 whole entry): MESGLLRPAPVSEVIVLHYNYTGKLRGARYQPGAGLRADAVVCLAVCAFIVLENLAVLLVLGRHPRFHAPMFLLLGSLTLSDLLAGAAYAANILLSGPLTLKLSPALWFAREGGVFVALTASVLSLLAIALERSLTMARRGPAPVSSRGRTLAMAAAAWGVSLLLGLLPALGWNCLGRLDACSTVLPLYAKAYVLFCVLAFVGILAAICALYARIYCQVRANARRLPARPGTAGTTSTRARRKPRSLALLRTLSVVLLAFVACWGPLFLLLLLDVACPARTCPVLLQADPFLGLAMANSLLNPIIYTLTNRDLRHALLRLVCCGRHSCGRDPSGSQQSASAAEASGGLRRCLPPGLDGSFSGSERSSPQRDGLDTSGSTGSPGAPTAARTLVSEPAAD
T2 sequence (Q9JKM5 whole entry): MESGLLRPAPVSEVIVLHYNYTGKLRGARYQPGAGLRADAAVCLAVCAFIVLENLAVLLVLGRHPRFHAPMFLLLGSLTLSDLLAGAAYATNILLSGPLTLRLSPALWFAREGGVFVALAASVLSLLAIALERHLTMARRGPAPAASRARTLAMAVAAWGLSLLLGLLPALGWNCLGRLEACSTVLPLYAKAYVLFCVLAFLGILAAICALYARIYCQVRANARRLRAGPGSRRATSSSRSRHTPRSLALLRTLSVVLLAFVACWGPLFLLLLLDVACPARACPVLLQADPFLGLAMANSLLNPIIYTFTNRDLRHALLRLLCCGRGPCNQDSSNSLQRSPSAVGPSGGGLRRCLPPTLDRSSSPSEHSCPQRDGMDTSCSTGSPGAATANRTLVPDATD
T3 sequence (O95136 whole entry): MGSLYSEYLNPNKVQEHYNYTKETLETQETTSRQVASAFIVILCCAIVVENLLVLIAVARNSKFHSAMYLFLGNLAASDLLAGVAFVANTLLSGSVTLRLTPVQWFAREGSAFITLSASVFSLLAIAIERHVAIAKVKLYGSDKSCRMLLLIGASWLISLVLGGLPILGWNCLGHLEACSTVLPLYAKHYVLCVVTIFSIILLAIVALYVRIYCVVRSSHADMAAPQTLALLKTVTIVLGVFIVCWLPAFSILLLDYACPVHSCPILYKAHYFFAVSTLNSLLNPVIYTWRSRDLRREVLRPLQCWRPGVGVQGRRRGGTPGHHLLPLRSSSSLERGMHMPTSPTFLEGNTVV
Chain of EDG6 receptor (O95977 whole entry): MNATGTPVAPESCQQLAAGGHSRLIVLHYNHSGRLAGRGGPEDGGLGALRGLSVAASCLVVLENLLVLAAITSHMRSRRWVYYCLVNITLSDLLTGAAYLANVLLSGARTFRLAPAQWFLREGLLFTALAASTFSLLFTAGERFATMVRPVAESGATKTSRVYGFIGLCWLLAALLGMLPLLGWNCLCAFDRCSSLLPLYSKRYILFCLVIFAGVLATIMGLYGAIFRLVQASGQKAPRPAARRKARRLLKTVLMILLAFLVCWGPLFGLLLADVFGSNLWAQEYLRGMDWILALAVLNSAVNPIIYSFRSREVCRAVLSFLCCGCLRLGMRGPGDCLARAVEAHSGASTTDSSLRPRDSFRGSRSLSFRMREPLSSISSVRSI
Chain of EDG1 receptor (P21453 whole entry): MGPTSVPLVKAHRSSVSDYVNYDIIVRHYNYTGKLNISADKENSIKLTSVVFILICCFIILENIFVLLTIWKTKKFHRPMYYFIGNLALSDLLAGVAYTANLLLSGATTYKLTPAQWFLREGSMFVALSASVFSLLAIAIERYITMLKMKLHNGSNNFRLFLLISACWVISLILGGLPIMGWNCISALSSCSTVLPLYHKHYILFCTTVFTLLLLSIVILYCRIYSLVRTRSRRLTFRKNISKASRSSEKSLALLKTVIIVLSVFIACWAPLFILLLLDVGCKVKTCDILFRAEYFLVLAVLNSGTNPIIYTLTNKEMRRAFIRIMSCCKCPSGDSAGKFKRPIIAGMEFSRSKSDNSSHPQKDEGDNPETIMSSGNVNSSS
Chain of EDG3 receptor (Q99500 whole entry): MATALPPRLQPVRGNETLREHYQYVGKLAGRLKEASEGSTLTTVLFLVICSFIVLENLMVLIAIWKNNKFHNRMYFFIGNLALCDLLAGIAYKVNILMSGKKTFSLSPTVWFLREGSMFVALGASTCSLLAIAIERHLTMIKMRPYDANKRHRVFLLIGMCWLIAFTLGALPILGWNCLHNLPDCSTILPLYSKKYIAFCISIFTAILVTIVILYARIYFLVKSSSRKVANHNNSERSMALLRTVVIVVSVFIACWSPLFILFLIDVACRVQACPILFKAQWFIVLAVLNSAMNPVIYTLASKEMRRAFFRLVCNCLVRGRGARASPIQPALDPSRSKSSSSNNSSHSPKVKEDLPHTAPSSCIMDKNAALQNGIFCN

## CCCCCCCCCCCCCCC[C@@H](O)[C@@H](N)COP(=O)(O)O [dHS1P, dihydro sphingosine 1-phosphate]
Human EDG8 [1]
  EDG8-mediated increase in intracellular Ca2+ by lysophospholipid mediators: evoked [Ca^2+]i increases in concentrations of 100 and 1000 nM

## lysophosphatidylcholine [LPC]
Human EDG8 [1]
  EDG8-mediated increase in intracellular Ca2+ by lysophospholipid mediators: failed to generate any significant response in concentrations up to 1 μM

## CCCCCCCCCCCCC/C=C/[C@@H](O)[C@@H](N)COP(=O)([O-])OCC[N+](C)(C)C [SPC, sphingosylphosphorylcholine]
Human EDG8 [1]
  EDG8-mediated increase in intracellular Ca2+ by lysophospholipid mediators: failed to generate any significant response in concentrations up to 1 μM

## Cc1ccc(C(=O)Nc2ccc(S(=O)(=O)O)c3cc(S(=O)(=O)O)cc(S(=O)(=O)O)c23)cc1NC(=O)c1cccc(NC(=O)Nc2cccc(C(=O)Nc3cc(C(=O)Nc4ccc(S(=O)(=O)O)c5cc(S(=O)(=O)O)cc(S(=O)(=O)O)c45)ccc3C)c2)c1 [suramin]
Human EDG8 [2]
  Effect on [Ca2+]i mobilization during preincubation period: did not show any effect
Rat EDG8
  Effect on [Ca2+]i mobilization during preincubation period: did not show any effect

## CCCCCCCCCCCCC/C=C/[C@@H](O)[C@@H](N)COP(=O)(O)O [S1P, sphingosine 1-phosphate]
EDG6 receptor
  S1P-induced [Ca2+]i mobilization via EDG6: failed to detect a significant Ca^2+ increase above basal levels
EDG1 receptor
  S1P-induced [Ca2+]i mobilization via EDG1: mobilize [Ca^2+]i in response to S1P
Human EDG8 [1]
  EDG8-mediated increase in intracellular Ca2+ by lysophospholipid mediators: most potent activator of EDG8
Human EDG8 [1]; CHO cells, EDG8 cotransfected with Gα16 or Gαqi5, 10, 100 and 1000 nM
  S1P-induced Ca2+ mobilization via EDG8: gained the ability to mobilize Ca^2+
Human EDG8 [1]; CHO cells, EDG8 without cotransfected G protein α subunit, 10, 100 and 1000 nM
  S1P-induced [Ca2+]i release via EDG8: did not release [Ca^2+]i
EDG3 receptor
  S1P-induced [Ca2+]i mobilization via EDG3: mobilize [Ca^2+]i in response to S1P
CHO cells; CHO cells transfected with empty vector DNA, 10, 100, 1000 nM
  S1P-induced rise in intracellular Ca2+: None of the applied S1P concentrations was capable of eliciting significant rises in intracellular Ca^2+
CHO cells; Gqi5- and G16-transfected CHO cells, no EDG receptor
  S1P-induced increase in [Ca2+]i: did not give rise to significant increases in [Ca^2+]i
EDG5 receptor
  S1P-induced [Ca2+]i mobilization via EDG5: mobilize [Ca^2+]i in response to S1P

## lysophosphatidic acid [LPA]
Human EDG8 [1]
  EDG8-mediated increase in intracellular Ca2+ by lysophospholipid mediators: evoked [Ca^2+]i increases in concentrations of 100 and 1000 nM

— patent US7141383B2, “EDG8 receptor, its preparation and use” (Sanofi-Aventis Deutschland GmbH, priority 2000, dated 2006)
